# Reference: US11708344B2, “Flavone derivatives for the treatment and prophylaxis of hepatitis B virus disease” (Hoffmann-La Roche Inc., priority 2018, dated 2023)
# pIC50: −log10 of the molar value.
# What was measured:
# [1] = Human microsome stability assay; type: in vitro ADME; details: human liver microsomes, 1 μM test compound, 0.5 mg/mL microsomal protein, 37° C., pH 7.4, 0-30 minutes
# Procedure: The human microsomal stability assay is used for early assessment of metabolic stability of a test compound in human liver microsomes.
# Human liver microsomes (Cat. NO.: 452117, Corning, USA; Cat. NO.: H2610, Xenotech, USA) were preincubated with test compound for 10 minutes at 37° C. in 100 mM potassium phosphate buffer, pH 7.4. The reactions were initiated by adding NADPH regenerating system. The final incubation mixtures contained 1 μM test compound, 0.5 mg/mL liver microsomal protein, 1 mM MgCl2, 1 mM NADP, 1 unit/mL isocitric dehydrogenase and 6 mM isocitric acid in 100 mM potassium phosphate buffer, pH 7.4. After incubation times of 0, 3, 6, 9, 15 and 30 minutes at 37° C., 300 μL of cold ACN (including internal standard) was added to 100 μL incubation mixture to terminate the reaction. Following precipitation and centrifugation, the amount of compound remaining in the samples was determined by LC-MS/MS. Controls of no NADPH regenerating system at zero and 30 minutes were also prepared and analyzed.
# [2] = test system: HBeAg (surrogate marker for cccDNA) in HepDES19 cells; assay: Engineered HepDES19 primary screen assay (HBeAg ELISA); type: cell-based, HBV; details: Hepatitis B virus, HepDES19, 120 h, read-out: IC50 (HBeAg level, HepDES19 primary screen assay), HepDES19 cells, 5 days compound incubation, HBeAg ELISA
# From the text: The assay was employed to screen for novel cccDNA inhibitors. HepDES19 is a cccDNA-producing cell line. In this cell line, HBeAg in the cell culture supernatant as surrogate marker, as HBeAg production depends on cccDNA level and activity. HepDES19 is an engineered cell line which contains a 1.1 unit length HBV genome, and pgRNA transcription from the transgene is controlled by Tetracycline (Tet). In the absence of Tet, pgRNA transcription will be induced, but HBV e antigen (HBeAg) could not be produced from this pgRNA due to very short leader sequence before the HBeAg start codon and the start codon is disrupted. Only after cccDNA is formed, the missing leader sequence and start codon mutation would be restored from the 3′-terminal redundancy of pgRNA, and then HBeAg could be synthesized. Therefore, HBeAg could be used as a surrogate marker for cccDNA (Zhou, T. et al., Antiviral Res. (2006), 72(2), 116-124; Guo, H. et al., J. Virol. (2007), 81(22), 12472-12484).
# HepDES19 cells were seeded at 2×10^6 cells per T150 flask and cultured with the culture medium (Dulbecco's Modified Eagle Medium: Nutrient Mixture F-12 [DMEM-F12, Gibco Cat. 11320-82], 10% Fetal Bovine Serum [FBS, Clontech Cat. 631101], 0.1 mM Non-Essential Amino Acids Solution [NEAA, Gibco Cat. 11140-050], 50 μg/mL Penicillin-Streptomycin [PS, Invitrogen Cat. 15140-163], 500 μg/mL Geneticin [G418, Invitrogen Cat. 10131-027]) containing 3 μg/mL Tet (Sigma, Cat. 87128) for 5 days. Cells were then seeded at 4×10^6 cells per T150 in the same culture medium as described above in the absence of Tet for 8 days. Cells were then harvested and frozen at density of 2×10^6 cells per mL. For compound testing, the frozen cells were thawed and seeded into 96-well plates at a density of 6×10^4 cells per well. At 24 hours after seeding, half log serial dilutions of compounds made with Dimethyl sulfoxide (DMSO, Sigma, Cat. D2650) were further diluted with the same culture medium as described above before they were added to the cells to reach desired final compound concentrations and 1% DMSO concentration. Plates were then incubated at 37° C. for another 5 days before measurement of HBeAg level and cell viability. […] HBeAg level were measured with enzyme-linked immunosorbent assay (ELISA) kit (Shanghai Kehua Diagnostic Medical Products Co., Ltd). Cell viability was assessed using Cell Counting Kit-8 (DonJindo, Cat. CK04-20). IC50 values were derived from the dose-response curve using 4 parameter logistic curve fit method.
# The compounds of the present invention were tested for their capacity to inhibit extracellular HBeAg level as described herein.
SMILES,Clearance of Human microsome [1] [mL/min/kg],pIC50 [2]
"CS(=O)(=O)NC(=O)[C@H]1C[C@H](Oc2cc(OC(F)(F)F)ccc2-c2cc(=O)c3cccc(Cl)c3o2)C1 [Example B047-B, Trans-3-[2-(8-chloro-4-oxo-chromen-2-yl)-5-(trifluoromethoxy)phenoxy]-N-methylsulfonyl-cyclobutanecarboxamide]",6.15,5.42
"CC(CCOCC(=O)O)Oc1cc(C(F)(F)F)ccc1-c1cc(=O)c2cccc(Cl)c2o1 (stereo not shown) [Example C024, 2-[3-[2-(8-chloro-4-oxo-chromen-2-yl)-5-(trifluoromethyl)phenoxy]butoxy]acetic acid]",6.15,6.04
"COc1cc(-c2cc(=O)c3cccc(Cl)c3o2)c(OCCCC(=O)O)cc1Br [Example A058, 4-[5-bromo-2-(8-chloro-4-oxo-chromen-2-yl)-4-methoxy-phenoxy]butanoic acid]",6.15,6.26
"O=C(O)[C@H]1C[C@@H](Oc2cc(C(F)(F)F)ccc2-c2cc(=O)c3cccc(Cl)c3o2)CN1S(=O)(=O)c1ccccc1 [Example B088, (2R,4R)-1-(benzenesulfonyl)-4-[2-(8-chloro-4-oxo-chromen-2-yl)-5-(trifluoromethyl)phenoxy]pyrrolidine-2-carboxylic acid]",6.15,5.73
"O=c1cc(-c2ccccc2O[C@H]2C[C@H](C(=O)O)C2)oc2c(Br)cccc12 [Example B022-B, Trans-3-[2-(8-bromo-4-oxo-chromen-2-yl)phenoxy]cyclobutanecarboxylic acid]",6.15,6.85
"COc1c(-c2ccc(C(F)(F)F)cc2OCCC(=O)O)oc2c(Cl)cccc2c1=O [Example A047, 3-[2-(8-chloro-3-methoxy-4-oxo-chromen-2-yl)-5-(trifluoromethyl)phenoxy]propanoic acid]",6.15,5.74
"O=C(O)CC1(COc2cc(Br)ccc2-c2cc(=O)c3cccc(Cl)c3o2)CC1 [Example A069, 2-[1-[[5-bromo-2-(8-chloro-4-oxo-chromen-2-yl)phenoxy]methyl]cyclopropyl]acetic acid]",6.15,5.56
"O=C(O)[C@H]1CCCN1C(=O)CCOc1cc(Br)ccc1-c1cc(=O)c2cccc(Cl)c2o1 [Example A075, (2R)-1-[3-[5-bromo-2-(8-chloro-4-oxo-chromen-2-yl)phenoxy]propanoyl]pyrrolidine-2-carboxylic acid]",6.15,5.55
"COc1cc(OCCO[C@H]2C[C@@H](C(=O)O)C2)c(-c2cc(=O)c3cccc(Cl)c3o2)cc1OC(F)(F)F [Example C089, Cis-3-[2-[2-(8-chloro-4-oxo-chromen-2-yl)-5-methoxy-4-(trifluoromethoxy)phenoxy]ethoxy]cyclobutanecarboxylic acid]",6.15,5.42
"O=C(O)[C@H]1CCN(C(=O)COCCOc2cc(Br)ccc2-c2cc(=O)c3cccc(Cl)c3o2)C1 [Example C112, (3S)-1-[2-[2-[5-bromo-2-(8-chloro-4-oxo-chromen-2-yl)phenoxy]ethoxy]acetyl]pyrrolidine-3-carboxylic acid]",6.15,4.94
"COc1cc(-c2cc(=O)c3cccc(Cl)c3o2)c(O[C@H]2C[C@@H](C(=O)NS(=O)(=O)C3CC3)C2)cc1Br [Example B054, Cis-3-[5-bromo-2-(8-chloro-4-oxo-chromen-2-yl)-4-methoxy-phenoxy]-N-cyclopropylsulfonyl-cyclobutanecarboxamide]",6.15,5.78
"CCOc1ccc(-c2cc(=O)c3c(O)ccc(Cl)c3o2)c(O[C@H]2C[C@H](C(=O)O)C2)c1 [Example B039-B, Trans-3-[2-(8-chloro-5-hydroxy-4-oxo-chromen-2-yl)-5-ethoxy-phenoxy]cyclobutanecarboxylic acid]",6.15,4.94
"O=C(COc1cc(C(F)(F)F)ccc1-c1cc(=O)c2cccc(Cl)c2o1)NC1CC(C(=O)O)C1 (stereo not shown) [Example A074, 3-[[2-[2-(8-chloro-4-oxo-chromen-2-yl)-5-(trifluoromethyl)phenoxy]acetyl]amino]cyclobutanecarboxylic acid]",6.15,5.62
"O=C(O)CCCCOc1cc(C(F)(F)F)ccc1-c1cc(=O)c2cccc(Cl)c2o1 [Example A065, 5-[2-(8-chloro-4-oxo-chromen-2-yl)-5-(trifluoromethyl)phenoxy]pentanoic acid]",6.15,5.72
"CCOc1ccc(OCCO[C@H]2C[C@@H](C(=O)O)C2)c(-c2cc(=O)c3cccc(Cl)c3o2)c1 [Example C051-A, Cis-3-[2-[2-(8-chloro-4-oxo-chromen-2-yl)-4-ethoxy-phenoxy]ethoxy]cyclobutanecarboxylic acid]",6.15,5.38
"O=c1cc(-c2ccc(C(F)(F)F)cc2O[C@H]2C[C@@H](C(=O)O)C2)oc2c(Cl)ccc(O)c12 [Example B038-A, Cis-3-[2-(8-chloro-5-hydroxy-4-oxo-chromen-2-yl)-5-(trifluoromethyl)phenoxy]cyclobutanecarboxylic acid]",6.84,5.98
"CC(C)(COc1cc(C(F)(F)F)ccc1-c1cc(=O)c2cccc(Cl)c2o1)C(=O)O [Example A062, 3-[2-(8-chloro-4-oxo-chromen-2-yl)-5-(trifluoromethyl)phenoxy]-2,2-dimethyl-propanoic acid]",9.88,4.89
"Cc1cc(-c2cc(=O)c3cccc(Cl)c3o2)c(OCC(=O)O)cc1Br [Example A073, 2-[5-bromo-2-(8-chloro-4-oxo-chromen-2-yl)-4-methyl-phenoxy]acetic acid]",6.15,–
"O=c1cc(-c2ccc(C3CC3)cc2OCCO[C@H]2C[C@H](C(=O)O)C2)oc2c(Cl)cccc12 [Example C069-B, Trans-3-[2-[2-(8-chloro-4-oxo-chromen-2-yl)-5-cyclopropyl-phenoxy]ethoxy]cyclobutanecarboxylic acid]",–,5.89
"O=C(O)[C@H]1CC[C@@H](Oc2cc(Br)ccc2-c2cc(=O)c3cccc(Cl)c3o2)C1 (relative stereo) [Example B028-A, Cis-3-[5-bromo-2-(8-chloro-4-oxo-chromen-2-yl)phenoxy]cyclopentanecarboxylic acid]",–,6.33
"O=C(O)CCOc1cc(OC(F)(F)F)ccc1-c1cc(=O)c2ccc(Br)c(Cl)c2o1 [Example A023, 3-[2-(7-bromo-8-chloro-4-oxo-chromen-2-yl)-5-(trifluoromethoxy)phenoxy]propanoic acid]",–,4.53
"COc1cc(OC2CC(C(=O)O)C2)c(-c2cc(=O)c3cccc(Cl)c3o2)cc1OC (stereo not shown) [Example B006, 3-[2-(8-chloro-4-oxo-chromen-2-yl)-4,5-dimethoxy-phenoxy]cyclobutanecarboxylic acid]",–,5.26
"Cc1cc(-c2cc(=O)c3cccc(Cl)c3o2)c(O[C@H]2C[C@H](C(=O)NS(C)(=O)=O)C2)cc1Br [Example B049-B, Trans-3-[5-bromo-2-(8-chloro-4-oxo-chromen-2-yl) 4-methyl-phenoxy]-N-methylsulfonyl-cyclobutanecarboxamide]",–,5.06
